Source: patent publication US4749704A, “Cyclopenta[d]pyrimidine derivatives and use as antidepressants” (Sankyo Company Limited, priority 1985, dated 1988)

Assays:
reserpine-induced ptosis = experiment: Test for Anti-reserpine Activity (inhibition of reserpine-induced ptosis); format: in vivo, male mice of the ddy strain; conditions: mice, oral, reserpine 2 mg/kg s.c., ptosis at 90, 120 and 180 min
Protocol: The test animals used were male mice of the ddy strain, each weighing 23-25 g. Each compound was tested on a group of five such mice. Each test compound was employed in the form of a solution or suspension in a physiological saline solution containing 0.3% w/v carboxymethylcellulose. The test employed was a partial modification of the method of Rubin et al. [J. Pharmacol. Exptl. Therap., 120, 125 (1957)].
2 mg/kg of reserpine were injected subcutaneously into each mouse and, immediately after the injection, the solution or suspension of the test compound was given orally in a dose of 5 mg/kg, 10 mg/kg or 25 mg/kg, as shown in the following Table. The animals were observed 90 minutes, 120 minutes and 180 minutes after administration to evaluate the inhibition of ptosis. At each observation, each mouse was assigned from 0 to 3 points corresponding to the degree of ptosis, as follows:
0 points: eyes completely open;
1 point: eyes about one third closed;
2 points: eyes about two thirds closed;
3 points: eyes completely closed.
For each mouse, the number of points from all three observations were added together, and the percentage inhibition of reserpine-induced ptosis (Ri) was calculated from the following formula:
Po =total number of points from three observations of an animal to which reserpine alone was administered; and
Pt =total number of points from three observations of an animal to which reserpine and the test compound were administered.

[1] = tested on: male rats of the F-344 strain; experiment: Acute Toxicity Test (single oral dose, 7 days observation); format: in vivo, rat (F-344 strain)
Protocol: The test animals used were male rats of the F-344 strain, each weighing from 150 to 170 g. One group of animals was fed normally, whilst another group was starved for 24 hours before administration of the test compound. To each animal was administered orally a single dose of the test compound in the amount shown in the following Table; the animals were then placed under observation for 7 days after administration. The results are reported in Table as "Mortality", where the numerator indicates the number of deaths in the observation period and the denominator indicates the number of animals tested with the particular test compound at the particular dose.

monoamine oxidase = experiment: Toxicity to the Liver (inhibition of monoamine oxidase in the rat liver); format: biochemical; conditions: estimated from inhibition of monoamine oxidase in the rat liver
[2] = background statement; cited from earlier work

| SMILES | Ri % (percentage inhibition of reserpine-induced ptosis) (reserpine-induced ptosis; dose 5 mg (5 mg/kg)) [%] | Ri % (percentage inhibition of reserpine-induced ptosis) (reserpine-induced ptosis; dose 10 mg (10 mg/kg)) [%] | Ri % (percentage inhibition of reserpine-induced ptosis) (reserpine-induced ptosis; dose 25 mg (25 mg/kg)) [%] | Mortality (deaths/animals tested) ([1]; fed rats, single oral dose 800 mg) | Mortality (deaths/animals tested) ([1]; starved (24 hours) rats, single oral dose 1500 mg) | toxicity to the liver relative to the prior art compound (Compound A) (monoamine oxidase) | side-effect activities [2] | Mortality (deaths/animals tested) ([1]; fed rats, single oral dose 200 mg) | Mortality (deaths/animals tested) ([1]; starved (24 hours) rats, single oral dose 200 mg) |
| --- | --- | --- | --- | --- | --- | --- | --- | --- | --- |
| N#Cc1ccc(Nc2ncnc3c2CCC3O)cc1 (stereo not shown) [Compound No. 31, 4-(4-Cyanoanilino)-6,7-dihydro-7-hydroxy-5H-cyclopenta[d]pyrimidine] | 50 | 71.4 | 85.7 | 0/5 | 0/5 | about half that of the prior art compound | – | – | – |
| CN(C)CCCN1c2ccccc2CCc2ccccc21 [Imipramine] | – | – | – | – | – | – | exhibits antihistaminic and anticholinergic activities | – | – |
| N#Cc1ccc(Nc2ncnc3c2CCC3)cc1 [Compound A, 4-(4-cyanoanilino)-6,7-dihydro-5H-cyclopenta[d]pyrimidine, reference compound] | – | – | 85.0 | – | – | – | – | 1/5 | 3/5 |
